Measurements: PubChem BioAssay (NCI)
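Test compounds were applied to cells in 96-well plates for 48 hours at 5 doses. GI50 is the concentration that inhibits growth by half. At the TGI there is no net growth.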

Columns and labels:
Assay in all cases: growth of human tumour cells (NCI), 48 h
SR leukemia = test system: SR leukemia
NCI-H522 lung = test system: NCI-H522 lung
KM12 colon = test system: KM12 colon
HOP-92 NSCLC = test system: HOP-92 NSCLC
T-47D breast = test system: T-47D breast
UO-31 renal = test system: UO-31 renal
HCC-2998 colon = test system: HCC-2998 colon
COLO 205 colon = test system: COLO 205 colon
SK-MEL-2 melanoma = test system: SK-MEL-2 melanoma
A498 renal = test system: A498 renal
HT29 colon = test system: HT29 colon
HS 578T breast = test system: HS 578T breast
HCT-116 colon = test system: HCT-116 colon
CAKI-1 renal = test system: CAKI-1 renal
UACC-257 melanoma = test system: UACC-257 melanoma
UACC-62 melanoma = test system: UACC-62 melanoma
PC-3 prostate = test system: PC-3 prostate
OVCAR-8 ovarian = test system: OVCAR-8 ovarian
MDA-MB-435 = test system: MDA-MB-435
NCI-H226 lung = test system: NCI-H226 lung
HOP-62 NSCLC = test system: HOP-62 NSCLC
OVCAR-3 ovarian = test system: OVCAR-3 ovarian
NCI-H460 lung = test system: NCI-H460 lung
CCRF-CEM leukemia = test system: CCRF-CEM leukemia
K-562 leukemia = test system: K-562 leukemia
HCT-15 colon = test system: HCT-15 colon
OVCAR-4 ovarian = test system: OVCAR-4 ovarian
A549 NSCLC = test system: A549 NSCLC
RXF 393 renal = test system: RXF 393 renal
SK-MEL-28 melanoma = test system: SK-MEL-28 melanoma
RPMI-8226 leukemia = test system: RPMI-8226 leukemia
U251 CNS = test system: U251 CNS
MDA-MB-231 breast = test system: MDA-MB-231 breast
SNB-75 CNS = test system: SNB-75 CNS
DU-145 prostate = test system: DU-145 prostate
TK-10 renal = test system: TK-10 renal
ACHN renal = test system: ACHN renal
SF-295 CNS = test system: SF-295 CNS
NCI/ADR-RES ovarian = test system: NCI/ADR-RES ovarian
786-0 renal = test system: 786-0 renal
HL-60(TB) leukemia = test system: HL-60(TB) leukemia
SF-539 CNS = test system: SF-539 CNS
SNB-19 CNS = test system: SNB-19 CNS
M14 melanoma = test system: M14 melanoma
MCF7 breast = test system: MCF7 breast
SF-268 CNS = test system: SF-268 CNS
SK-MEL-5 melanoma = test system: SK-MEL-5 melanoma
NCI-H23 lung = test system: NCI-H23 lung
MOLT-4 leukemia = test system: MOLT-4 leukemia
OVCAR-5 ovarian = test system: OVCAR-5 ovarian
EKVX NSCLC = test system: EKVX NSCLC
SW-620 colon = test system: SW-620 colon
BT-549 breast = test system: BT-549 breast
IGROV1 ovarian = test system: IGROV1 ovarian
SK-OV-3 ovarian = test system: SK-OV-3 ovarian
SN12C renal = test system: SN12C renal
LOX IMVI melanoma = test system: LOX IMVI melanoma
MALME-3M melanoma = test system: MALME-3M melanoma

In the case of `Cc1oc2nc(N(C)C)n3cnnc3c2c1C`, the TGI (SR leukemia) is reported as over 100 µM, the TGI (NCI-H522 lung) is reported as over 100 µM and the TGI (KM12 colon) is reported as over 100 µM. The TGI (HOP-92 NSCLC) was over 100 µM, the TGI (T-47D breast) was over 100 µM and the TGI (UO-31 renal) was over 100 µM. It also gave a TGI (HCC-2998 colon) of over 100 µM, a TGI (COLO 205 colon) of over 100 µM and a TGI (SK-MEL-2 melanoma) of over 100 µM. The TGI (A498 renal) was over 100 µM, the TGI (HT29 colon) was over 100 µM and the TGI (HS 578T breast) was over 100 µM. The TGI (HCT-116 colon) was over 100 µM, the TGI (CAKI-1 renal) was over 100 µM and the TGI (UACC-257 melanoma) was over 100 µM. For the same molecule, the TGI (UACC-62 melanoma) was over 100 µM, the TGI (PC-3 prostate) was over 100 µM and the TGI (OVCAR-8 ovarian) was over 100 µM. It also gave a TGI (MDA-MB-435) of over 100 µM, a TGI (NCI-H226 lung) of over 100 µM and a TGI (HOP-62 NSCLC) of over 100 µM. The TGI (OVCAR-3 ovarian) was over 100 µM, the TGI (NCI-H460 lung) was over 100 µM and the TGI (CCRF-CEM leukemia) was over 100 µM. The TGI (K-562 leukemia) was over 100 µM, the TGI (HCT-15 colon) was over 100 µM and the TGI (OVCAR-4 ovarian) was over 100 µM. The TGI (A549 NSCLC) was over 100 µM, the TGI (RXF 393 renal) was over 100 µM and the TGI (SK-MEL-28 melanoma) was over 100 µM. The TGI (RPMI-8226 leukemia) was over 100 µM, the TGI (U251 CNS) was over 100 µM and the TGI (MDA-MB-231 breast) was over 100 µM. The TGI (SNB-75 CNS) was over 100 µM, the TGI (DU-145 prostate) was over 100 µM and the TGI (TK-10 renal) was over 100 µM. For the same molecule, the TGI (ACHN renal) was over 100 µM, the TGI (SF-295 CNS) was over 100 µM and the TGI (NCI/ADR-RES ovarian) was over 100 µM. For the same molecule, the TGI (786-0 renal) was over 100 µM, the TGI (HL-60(TB) leukemia) was over 100 µM and the TGI (SF-539 CNS) was over 100 µM. The TGI (SNB-19 CNS) was over 100 µM, the TGI (M14 melanoma) was over 100 µM and the TGI (MCF7 breast) was over 100 µM. It also gave a TGI (SF-268 CNS) of over 100 µM, a TGI (SK-MEL-5 melanoma) of over 100 µM and a TGI (NCI-H23 lung) of over 100 µM. For the same molecule, the TGI (MOLT-4 leukemia) was over 100 µM, the TGI (OVCAR-5 ovarian) was over 100 µM and the TGI (EKVX NSCLC) was over 100 µM. The TGI (SW-620 colon) was over 100 µM, the TGI (BT-549 breast) was over 100 µM and the TGI (IGROV1 ovarian) was over 100 µM. It also gave a TGI (SK-OV-3 ovarian) of over 100 µM and a TGI (SN12C renal) of over 100 µM.

`Cn1cccc1-c1cc(-c2ccccc2)nc(N)c1C#N` showed a GI50 (SR leukemia) of 40.8 µM, a TGI (SR leukemia) of over 100 µM and a GI50 (NCI-H522 lung) of over 78.2 µM. It also gave a TGI (NCI-H522 lung) of over 100 µM, a GI50 (KM12 colon) of over 100 µM and a TGI (KM12 colon) of over 100 µM. For the same molecule, the GI50 (T-47D breast) was over 100 µM, the TGI (T-47D breast) was over 100 µM and the GI50 (UO-31 renal) was over 100 µM. It also gave a TGI (UO-31 renal) of over 100 µM, a GI50 (HCC-2998 colon) of over 100 µM and a TGI (HCC-2998 colon) of over 100 µM. The GI50 (COLO 205 colon) was over 100 µM, the TGI (COLO 205 colon) was over 100 µM and the GI50 (SK-MEL-2 melanoma) was over 100 µM. The TGI (SK-MEL-2 melanoma) was over 100 µM, the GI50 (A498 renal) was 36.8 µM and the TGI (A498 renal) was over 100 µM. For the same molecule, the GI50 (HT29 colon) was over 100 µM, the TGI (HT29 colon) was over 100 µM and the GI50 (HS 578T breast) was over 28.8 µM. For the same molecule, the TGI (HS 578T breast) was over 100 µM, the GI50 (HCT-116 colon) was over 100 µM and the TGI (HCT-116 colon) was over 100 µM. It also gave a GI50 (CAKI-1 renal) of over 100 µM, a TGI (CAKI-1 renal) of over 100 µM and a GI50 (UACC-257 melanoma) of over 100 µM. For the same molecule, the TGI (UACC-257 melanoma) was over 100 µM, the GI50 (UACC-62 melanoma) was 34.5 µM and the TGI (UACC-62 melanoma) was over 100 µM. The GI50 (PC-3 prostate) was over 100 µM, the TGI (PC-3 prostate) was over 100 µM and the GI50 (OVCAR-8 ovarian) was over 100 µM. The TGI (OVCAR-8 ovarian) was over 100 µM, the GI50 (MDA-MB-435) was over 100 µM and the TGI (MDA-MB-435) was over 100 µM. For the same molecule, the GI50 (NCI-H226 lung) was over 46.4 µM, the TGI (NCI-H226 lung) was over 100 µM and the GI50 (HOP-62 NSCLC) was 84.6 µM. For the same molecule, the TGI (HOP-62 NSCLC) was over 100 µM, the GI50 (OVCAR-3 ovarian) was over 67.7 µM and the TGI (OVCAR-3 ovarian) was over 100 µM. The GI50 (NCI-H460 lung) was over 100 µM, the TGI (NCI-H460 lung) was over 100 µM and the GI50 (K-562 leukemia) was over 100 µM. For the same molecule, the TGI (K-562 leukemia) was over 100 µM, the GI50 (HCT-15 colon) was over 100 µM and the TGI (HCT-15 colon) was over 100 µM. The GI50 (OVCAR-4 ovarian) was over 68.6 µM, the TGI (OVCAR-4 ovarian) was over 100 µM and the GI50 (A549 NSCLC) was over 100 µM. The TGI (A549 NSCLC) was over 100 µM, the GI50 (RXF 393 renal) was over 100 µM and the TGI (RXF 393 renal) was over 100 µM. The GI50 (SK-MEL-28 melanoma) was over 100 µM, the TGI (SK-MEL-28 melanoma) was over 100 µM and the GI50 (RPMI-8226 leukemia) was 55.9 µM. The TGI (RPMI-8226 leukemia) was over 100 µM, the GI50 (U251 CNS) was over 100 µM and the TGI (U251 CNS) was over 100 µM. For the same molecule, the GI50 (MDA-MB-231 breast) was over 82 µM, the TGI (MDA-MB-231 breast) was over 100 µM and the GI50 (LOX IMVI melanoma) was over 100 µM. For the same molecule, the TGI (LOX IMVI melanoma) was over 100 µM, the GI50 (SNB-75 CNS) was over 43 µM and the TGI (SNB-75 CNS) was over 87.9 µM. It also gave a GI50 (DU-145 prostate) of 97.5 µM, a TGI (DU-145 prostate) of over 100 µM and a GI50 (TK-10 renal) of over 100 µM. The TGI (TK-10 renal) was over 100 µM, the GI50 (ACHN renal) was over 100 µM and the TGI (ACHN renal) was over 100 µM. It also gave a GI50 (SF-295 CNS) of over 86.3 µM, a TGI (SF-295 CNS) of over 100 µM and a GI50 (NCI/ADR-RES ovarian) of over 100 µM. For the same molecule, the TGI (NCI/ADR-RES ovarian) was over 100 µM, the GI50 (786-0 renal) was over 96.4 µM and the TGI (786-0 renal) was over 100 µM. For the same molecule, the GI50 (HL-60(TB) leukemia) was 0.761 µM, the TGI (HL-60(TB) leukemia) was over 100 µM and the GI50 (SF-539 CNS) was over 58.3 µM. For the same molecule, the TGI (SF-539 CNS) was over 100 µM, the GI50 (SNB-19 CNS) was over 89.5 µM and the TGI (SNB-19 CNS) was over 100 µM. The GI50 (M14 melanoma) was over 100 µM, the TGI (M14 melanoma) was over 100 µM and the GI50 (MALME-3M melanoma) was over 100 µM. It also gave a TGI (MALME-3M melanoma) of over 100 µM, a GI50 (MCF7 breast) of over 100 µM and a TGI (MCF7 breast) of over 100 µM. It also gave a GI50 (SF-268 CNS) of over 100 µM, a TGI (SF-268 CNS) of over 100 µM and a GI50 (SK-MEL-5 melanoma) of 98.7 µM. It also gave a TGI (SK-MEL-5 melanoma) of over 100 µM, a GI50 (NCI-H23 lung) of over 100 µM and a TGI (NCI-H23 lung) of over 100 µM. The GI50 (MOLT-4 leukemia) was over 70 µM, the TGI (MOLT-4 leukemia) was over 100 µM and the GI50 (OVCAR-5 ovarian) was over 100 µM. The TGI (OVCAR-5 ovarian) was over 100 µM, the GI50 (EKVX NSCLC) was 98.1 µM and the TGI (EKVX NSCLC) was over 100 µM. The GI50 (SW-620 colon) was over 100 µM, the TGI (SW-620 colon) was over 100 µM and the GI50 (BT-549 breast) was 67.5 µM. For the same molecule, the TGI (BT-549 breast) was over 100 µM, the GI50 (IGROV1 ovarian) was over 100 µM and the TGI (IGROV1 ovarian) was over 100 µM. It also gave a GI50 (SK-OV-3 ovarian) of over 100 µM, a TGI (SK-OV-3 ovarian) of over 100 µM and a GI50 (SN12C renal) of over 76.8 µM. For the same molecule, the TGI (SN12C renal) was over 100 µM.
